Assay: distribution coefficient of water-octanol (log P), OECD Test Guideline 107
Settings: for log P (distribution coefficient of water-octanol): OECD Test Guideline 107
From the text: Here, the distribution coefficient of water-octanol, that is, a log P value represents a value which is defined by OECD Test Guideline 107. As the log P value is high, hydrophobicity is high, and as the log P value is low, hydrophilicity is high.

| SMILES | log P (distribution coefficient of water-octanol) | logP (octanol/water) |
| --- | --- | --- |
| CCCC(=O)OCC(O)CO (stereo not drawn) [butyric acid 2,3-dihydroxypropyl] | −0.21 |  |
| CCCC(=O)OCC(COC(=O)CCC)OC(=O)CCC [glycerin tributyrate] |  | 2.95 |
| CCCCCC(=O)OCC(O)CO (stereo not drawn) [hexanoic acid 2,3-dihydroxypropyl] | 0.85 |  |

Reference: US9708500B2, “Liquid composition, pigment dispersion liquid, and aqueous ink composition for ink jet recording” (Seiko Epson Corporation, priority 2015, dated 2017)
